Source: article PMC10962247 (Science translational medicine, 2024)
pIC50: −log10 of the molar value.

Molecular target: T1, Glycogen synthase 1 (GYS1) (Homo sapiens, UniProt P13807)
T1 sequence (P13807 1-737): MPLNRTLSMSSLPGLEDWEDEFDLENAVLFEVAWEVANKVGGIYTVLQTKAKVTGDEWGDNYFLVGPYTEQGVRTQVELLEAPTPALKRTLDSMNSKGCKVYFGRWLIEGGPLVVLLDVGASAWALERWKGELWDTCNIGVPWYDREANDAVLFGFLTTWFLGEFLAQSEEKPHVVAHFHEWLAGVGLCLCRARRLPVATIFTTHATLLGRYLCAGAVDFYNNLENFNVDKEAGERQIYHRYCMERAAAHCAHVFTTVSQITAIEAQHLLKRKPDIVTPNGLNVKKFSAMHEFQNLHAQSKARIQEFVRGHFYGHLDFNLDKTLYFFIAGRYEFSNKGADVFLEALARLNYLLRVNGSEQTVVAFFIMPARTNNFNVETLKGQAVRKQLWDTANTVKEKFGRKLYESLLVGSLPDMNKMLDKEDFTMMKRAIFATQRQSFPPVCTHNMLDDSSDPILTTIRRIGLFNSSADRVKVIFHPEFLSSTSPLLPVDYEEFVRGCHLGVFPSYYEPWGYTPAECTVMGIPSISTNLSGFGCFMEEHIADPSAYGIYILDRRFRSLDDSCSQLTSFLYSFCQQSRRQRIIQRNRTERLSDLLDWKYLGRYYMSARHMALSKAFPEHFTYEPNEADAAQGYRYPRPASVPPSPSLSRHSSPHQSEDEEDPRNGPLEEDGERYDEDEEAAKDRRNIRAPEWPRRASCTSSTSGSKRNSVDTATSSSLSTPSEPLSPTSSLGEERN
T1 sequence (P46976 2-350 partner): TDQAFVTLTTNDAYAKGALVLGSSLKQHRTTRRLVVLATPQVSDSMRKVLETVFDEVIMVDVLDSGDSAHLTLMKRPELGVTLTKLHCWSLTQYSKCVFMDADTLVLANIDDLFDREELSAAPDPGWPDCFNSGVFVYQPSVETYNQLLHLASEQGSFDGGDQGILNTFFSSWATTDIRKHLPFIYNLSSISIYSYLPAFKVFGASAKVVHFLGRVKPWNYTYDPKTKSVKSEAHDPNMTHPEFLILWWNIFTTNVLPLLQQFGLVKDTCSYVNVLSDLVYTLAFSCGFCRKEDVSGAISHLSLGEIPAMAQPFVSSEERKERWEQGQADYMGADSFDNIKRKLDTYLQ
Assay: PK/LDH coupled enzyme assay with recombinant GYS1 in the presence of G6P
Type: biochemical

CC(C)c1ccc([C@@H](NC(=O)[C@@H]2C[C@@H](F)CN2C(=O)Cc2cn[nH]n2)c2ccccc2)cc1 [MZ-101]
pIC50: 7.39
